In US9221795B2, “Phosphatidylinositol 3-kinase inhibitors” (Gilead Sciences, Inc., priority 2013, dated 2015):

What was measured:
[1] = target: PI3Kδ (Homo sapiens (Human), UniProt O00329); test: Enzymatic activity of PI3K isoforms, TR-FRET assay (PI3Kδ); format: biochemical; details: 2× Km ATP, geometric mean if more than one value
Outline: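 Recombinant heterodimeric PI3Kβ or PI3Kδ (25-50 pM) was run with 2 μM PIP2 and 2× Km ATP (75-500 μM) at pH 7.4, for 30 min at 25° C. PIP3 formation was detected by TR-FRET displacement of labeled PIP3 from Eu-GRP-1. IC50 values in nM come from four-parameter fits, as geometric means.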

[2] = target: PI3Kβ (Homo sapiens (Human), UniProt P42338); test: Enzymatic activity of PI3K isoforms, TR-FRET assay (PI3Kβ); format: biochemical; details: 2× Km ATP, geometric mean if more than one value
Sequence of PI3Kβ (P42338 whole entry, the tested form may be a part, canonical isoform): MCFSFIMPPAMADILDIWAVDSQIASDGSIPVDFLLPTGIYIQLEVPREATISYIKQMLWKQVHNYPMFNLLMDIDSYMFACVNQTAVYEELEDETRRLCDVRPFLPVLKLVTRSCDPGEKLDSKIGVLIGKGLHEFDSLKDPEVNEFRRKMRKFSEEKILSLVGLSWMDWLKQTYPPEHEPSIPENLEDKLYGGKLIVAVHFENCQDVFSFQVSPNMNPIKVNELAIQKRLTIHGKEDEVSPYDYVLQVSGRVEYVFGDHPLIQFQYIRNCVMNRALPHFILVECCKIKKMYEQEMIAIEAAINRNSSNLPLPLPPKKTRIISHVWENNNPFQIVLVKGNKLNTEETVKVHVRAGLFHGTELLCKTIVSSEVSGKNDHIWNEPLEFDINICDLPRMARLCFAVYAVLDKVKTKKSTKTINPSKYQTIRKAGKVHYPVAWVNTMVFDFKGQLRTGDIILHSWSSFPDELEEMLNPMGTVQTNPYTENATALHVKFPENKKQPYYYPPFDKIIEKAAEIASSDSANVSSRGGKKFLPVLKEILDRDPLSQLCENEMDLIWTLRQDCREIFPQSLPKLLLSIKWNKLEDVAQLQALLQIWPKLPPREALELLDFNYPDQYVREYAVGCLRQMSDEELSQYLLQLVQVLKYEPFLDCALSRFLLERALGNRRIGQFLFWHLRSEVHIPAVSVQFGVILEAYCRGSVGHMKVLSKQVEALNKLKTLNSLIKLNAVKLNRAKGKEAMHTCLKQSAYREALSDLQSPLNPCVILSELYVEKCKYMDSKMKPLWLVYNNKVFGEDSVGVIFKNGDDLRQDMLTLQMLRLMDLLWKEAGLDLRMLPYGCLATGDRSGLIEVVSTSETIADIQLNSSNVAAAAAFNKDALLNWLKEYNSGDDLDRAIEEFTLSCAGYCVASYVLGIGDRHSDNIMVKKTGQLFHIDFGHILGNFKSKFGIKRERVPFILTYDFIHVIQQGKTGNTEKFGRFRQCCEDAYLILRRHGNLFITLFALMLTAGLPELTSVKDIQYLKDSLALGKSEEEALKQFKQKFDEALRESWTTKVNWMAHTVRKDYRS
Sequence of PI3Kβ (P27986 whole entry partner, the tested form may be a part, canonical isoform): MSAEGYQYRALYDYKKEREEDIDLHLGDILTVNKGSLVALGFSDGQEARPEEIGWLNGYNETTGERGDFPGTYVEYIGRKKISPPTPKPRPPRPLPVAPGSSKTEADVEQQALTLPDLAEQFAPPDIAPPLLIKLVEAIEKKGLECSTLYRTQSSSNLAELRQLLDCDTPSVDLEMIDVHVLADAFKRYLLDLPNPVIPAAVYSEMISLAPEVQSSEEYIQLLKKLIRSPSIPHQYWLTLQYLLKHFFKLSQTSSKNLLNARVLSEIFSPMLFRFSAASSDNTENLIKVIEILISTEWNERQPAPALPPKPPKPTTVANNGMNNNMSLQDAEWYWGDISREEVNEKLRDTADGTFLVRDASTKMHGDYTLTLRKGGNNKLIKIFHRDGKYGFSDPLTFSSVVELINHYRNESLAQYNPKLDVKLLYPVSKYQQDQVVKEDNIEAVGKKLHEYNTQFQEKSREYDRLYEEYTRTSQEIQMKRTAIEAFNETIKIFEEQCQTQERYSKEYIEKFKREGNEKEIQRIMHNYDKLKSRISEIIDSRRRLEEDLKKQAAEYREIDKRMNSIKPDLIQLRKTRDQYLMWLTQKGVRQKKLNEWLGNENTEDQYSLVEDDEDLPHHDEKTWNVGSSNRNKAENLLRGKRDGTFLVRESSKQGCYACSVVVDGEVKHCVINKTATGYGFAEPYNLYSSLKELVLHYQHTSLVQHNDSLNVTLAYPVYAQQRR
Description: Enzymatic activity of the class I PI3K isoforms in the presence of the compounds of Table 1 and Compounds X, Y and Z was measured using a time-resolved fluorescence resonance energy transfer (TR-FRET) assay. The TR-FRET assay was used to monitor formation of the product 3,4,5-inositol triphosphate molecule (PIP3) as it competed with fluorescently labeled PIP3 for binding to the GRP-1 pleckstrin homology domain protein. An increase in […] product results in a decrease in TR-FRET signal as the labeled fluorophore is displaced from the GRP-1 protein binding site.
Class I PI3K isoforms were expressed and purified as heterodimeric recombinant proteins. All assay reagents and buffers for the TR-FRET assay were purchased from Millipore. PI3K isoforms were assayed under initial rate conditions in the presence of 25 mM Hepes (pH 7.4), and 2× Km ATP (75-500 μM), 2 μM PIP2, 5% glycerol, 5 mM MgCl2, 50 mM NaCl, 0.05% (v/v) Chaps, 1 mM dithiothreitol, 1% (v/v) DMSO at the following concentrations for each isoforms: PI3Kα, PI3Kβ, and PI3Kδ between 25 and 50 pM, and PI3Kγ at 2 nM. After an assay reaction time of 30 minutes at 25° C., reactions were terminated with a final concentration of 10 mM EDTA, 10 nM labeled-PIP3, and 35 nM Europium labeled GRP-1 detector protein before reading TR-FRET on an Envision plate reader (Ex: 340 nm; Em: 615/665 nm; […] delay and 500 μs read window).
Data were normalized based on positive ([…] wortmanin) and negative (DMSO) controls. α, β, δ, and γ IC50 values were calculated from the fit of the dose-response curves to a four-parameter equation. All IC50 values represent geometric mean values if more than one value was obtained. IC50 values were reported in units of nM.

[3] = system: basophils; test: Basophil activation in human whole blood (Flow2 CAST kit, CD63 flow cytometry); format: cell-based; details: Homo sapiens, human whole blood, basophils activated with anti-FcεRI mAb or fMLP, percent CD63 positive cells
[4] = Hepatocyte stability (parent drug disappearance in cryopreserved hepatocytes); format: in vitro ADME, human; details: human, cryopreserved human hepatocytes, human hepatocytes, 2 μM substrate, 37° C.
Description: This assay was used to evaluate the metabolic stability of test articles (TA) following incubation in cryopreserved hepatocytes by monitoring parent drug disappearance via LC/MC. The TA was incubated with 1 million hepatocytes/mL at 2 μM substrate in duplicate. The incubation was carried out at 37° C. with 5% CO2 and saturating humidity. Samples were taken at 0, 1, 2, and 4 hours to monitor the disappearance of TA and a half-life (t1/2) was determined. Table 3 below summarizes the human hepatocyte t1/2 values (hours) collected in the Example.

Sequence of PI3Kδ (O00329 whole entry, canonical isoform): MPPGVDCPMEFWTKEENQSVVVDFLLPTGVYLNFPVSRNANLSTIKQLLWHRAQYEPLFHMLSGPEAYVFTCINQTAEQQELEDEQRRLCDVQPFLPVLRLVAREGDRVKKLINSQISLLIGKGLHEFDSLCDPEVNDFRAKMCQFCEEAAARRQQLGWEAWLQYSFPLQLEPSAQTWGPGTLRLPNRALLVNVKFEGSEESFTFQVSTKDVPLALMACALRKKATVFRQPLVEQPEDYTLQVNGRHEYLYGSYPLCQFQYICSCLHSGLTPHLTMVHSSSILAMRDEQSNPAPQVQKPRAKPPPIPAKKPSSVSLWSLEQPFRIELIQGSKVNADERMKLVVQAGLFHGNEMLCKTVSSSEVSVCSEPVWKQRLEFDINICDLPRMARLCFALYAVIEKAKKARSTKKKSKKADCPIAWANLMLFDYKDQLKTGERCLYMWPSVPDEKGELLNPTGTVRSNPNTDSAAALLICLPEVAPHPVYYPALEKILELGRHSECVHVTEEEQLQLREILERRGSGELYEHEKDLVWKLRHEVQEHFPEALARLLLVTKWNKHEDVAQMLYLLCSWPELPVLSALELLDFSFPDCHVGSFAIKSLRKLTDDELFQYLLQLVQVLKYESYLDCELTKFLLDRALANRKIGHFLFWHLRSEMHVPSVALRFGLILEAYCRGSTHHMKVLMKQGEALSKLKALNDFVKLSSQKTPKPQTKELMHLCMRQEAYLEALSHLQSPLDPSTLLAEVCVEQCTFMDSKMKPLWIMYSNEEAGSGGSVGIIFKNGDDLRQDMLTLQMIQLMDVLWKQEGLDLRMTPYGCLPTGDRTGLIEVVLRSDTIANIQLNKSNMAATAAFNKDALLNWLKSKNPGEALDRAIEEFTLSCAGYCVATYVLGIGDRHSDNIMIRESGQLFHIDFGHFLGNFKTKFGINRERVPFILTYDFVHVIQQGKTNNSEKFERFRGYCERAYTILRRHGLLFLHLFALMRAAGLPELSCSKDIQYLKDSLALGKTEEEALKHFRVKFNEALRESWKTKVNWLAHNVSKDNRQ
Sequence of PI3Kδ (P27986 whole entry partner, canonical isoform): as the sequence (P27986 whole entry partner, the tested form may be a part, canonical isoform) above

With `CC[C@H](Nc1nc(N)nc(N)c1C#N)c1nc2cccc(Cl)c2c(=O)n1-c1cnc(N)cc1C` (atropisomer, axis not shown) [Compound 91, (S)-2,4-diamino-6-((1-(3-(6-amino-4-methylpyridin-3-yl)-5-chloro-4-oxo-3,4-dihydroquinazolin-2-yl)propyl)amino)pyrimidine-5-carbonitrile] the IC50 [1] was 4 nM and the IC50 [2] was 99 nM.

With `Cc1cc(N)ncc1-n1c([C@H](C)Nc2nc(N)nc(N)c2C#N)nc2cccc(Cl)c2c1=O` (atropisomer, axis not shown) [Compound 93, (S)-2,4-diamino-6-((1-(3-(6-amino-4-methylpyridin-3-yl)-5-chloro-4-oxo-3,4-dihydroquinazolin-2-yl)ethyl)amino)pyrimidine-5-carbonitrile] the IC50 [1] was 2 nM and the IC50 [2] was 30 nM.

For `Cc1cc(N)ncc1-n1c([C@H](C)Nc2nc(N)nc(N)c2C#N)nc2c(Cl)ccc(Cl)c2c1=O` (atropisomer, axis not shown) [Compound 95, (S)-2,4-diamino-6-((1-(3-(6-amino-4-methylpyridin-3-yl)-5,8-dichloro-4-oxo-3,4-dihydroquinazolin-2-yl)ethyl)amino)pyrimidine-5-carbonitrile], the IC50 [1] was 4 nM and the IC50 [2] was 28 nM.

For `Cc1cc(N)ncc1-n1c([C@@H](Nc2nc(N)nc(N)c2C#N)C2CC2)nc2c(Cl)ccc(Cl)c2c1=O` (atropisomer, axis not shown) [Compound 98, (S)-2,4-diamino-6-(((3-(6-amino-4-methylpyridin-3-yl)-5,8-dichloro-4-oxo-3,4-dihydroquinazolin-2-yl)(cyclopropyl)methyl)amino)pyrimidine-5-carbonitrile], the IC50 [1] was 21 nM and the IC50 [2] was 160 nM.

With `Cc1cc(N)ncc1-n1c([C@@H](Nc2nc(N)nc(N)c2C#N)C2CC2)nc2c(Cl)ccc(Cl)c2c1=O` (atropisomer, axis not shown) [Compound 99, (S)-2,4-diamino-6-(((3-(6-amino-4-methylpyridin-3-yl)-5,8-dichloro-4-oxo-3,4-dihydroquinazolin-2-yl)(cyclopropyl)methyl)amino)pyrimidine-5-carbonitrile] the IC50 [1] was 640 nM and the IC50 [2] was 3600 nM.

In the case of `CC[C@H](Nc1nc(N)nc(N)c1C#N)c1nc2c(F)ccc(Cl)c2c(=O)n1-c1cccnc1` [Compound 26, (S)-2,4-diamino-6-(1-(5-chloro-8-fluoro-4-oxo-3-(pyridin-3-yl)-3,4-dihydroquinazolin-2-yl)propylamino)pyrimidine-5-carbonitrile], the IC50 [1] is reported as 1 nM, the EC50 ([3]; class symbol) is reported as < 1 nM and the EC50 ([3]; geometric mean) is reported as 0.7 nM. For the same compound, the half-life at 2 μM ([4]; class symbol) was > 10 h and the half-life at 2 μM ([4]; Table 3) was > 10 h.

With `N#Cc1c(N)nc(N)nc1N[C@H](c1nc2c(F)ccc(Cl)c2c(=O)n1-c1cccnc1)C1CC1` [Compound 27, (S)-2,4-diamino-6-((5-chloro-8-fluoro-4-oxo-3-(pyridin-3-yl)-3,4-dihydroquinazolin-2-yl)(cyclopropyl)methylamino)pyrimidine-5-carbonitrile] the IC50 [1] was 1 nM, the EC50 ([3]; class symbol) was < 1 nM and the EC50 ([3]; geometric mean) was 0.7 nM. The half-life at 2 μM ([4]; class symbol) was > 10 h and the half-life at 2 μM ([4]; Table 3) was > 10 h.

Compound `N#Cc1c(N)nc(N)nc1N[C@H](c1nc2c(Cl)ccc(Cl)c2c(=O)n1-c1cccnc1)C1CC1` [Compound 28, (S)-2,4-diamino-6-(cyclopropyl(5,8-dichloro-4-oxo-3-(pyridin-3-yl)-3,4-dihydroquinazolin-2-yl)methylamino)pyrimidine-5-carbonitrile] has an IC50 [1] of 0.6 nM, an EC50 ([3]; class symbol) of 1 to 10 nM and an EC50 ([3]; geometric mean) of 4 nM. For the same compound, the half-life at 2 μM ([4]; class symbol) was 6 to 10 h and the half-life at 2 μM ([4]; Table 3) was 9 h.

For `N#Cc1c(N)nc(N)nc1N[C@@H](CC1CC1)c1nc2c(F)ccc(Cl)c2c(=O)n1-c1cccnc1` [Compound 29, (S)-2,4-diamino-6-(1-(5-chloro-8-fluoro-4-oxo-3-(pyridin-3-yl)-3,4-dihydroquinazolin-2-yl)-2-cyclopropylethylamino)pyrimidine-5-carbonitrile], the IC50 [1] was 8 nM, the EC50 ([3]; class symbol) was 10 to 50 nM and the EC50 ([3]; geometric mean) was 10 nM. For the same compound, the half-life at 2 μM ([4]; class symbol) was > 10 h and the half-life at 2 μM ([4]; Table 3) was > 10 h.

With `C[C@H](Nc1nc(N)nc(N)c1C#N)c1nc2c(Cl)ccc(Cl)c2c(=O)n1-c1cncc(F)c1` [Compound 30, (S)-2,4-diamino-6-(1-(5,8-dichloro-3-(5-fluoropyridin-3-yl)-4-oxo-3,4-dihydroquinazolin-2-yl)ethylamino)pyrimidine-5-carbonitrile] the IC50 [1] was 1 nM, the EC50 ([3]; class symbol) was < 1 nM and the EC50 ([3]; geometric mean) was 0.7 nM. It also gave a half-life at 2 μM ([4]; class symbol) of 6 to 10 h and a half-life at 2 μM ([4]; Table 3) of 9 h.

With `C[C@H](Nc1nc(N)nc(N)c1C#N)c1nc2c(F)ccc(Cl)c2c(=O)n1-c1cncc(F)c1` [Compound 31, (S)-2,4-diamino-6-(1-(5-chloro-8-fluoro-3-(5-fluoropyridin-3-yl)-4-oxo-3,4-dihydroquinazolin-2-yl)ethylamino)pyrimidine-5-carbonitrile] the IC50 [1] was 1 nM, the EC50 ([3]; class symbol) was < 1 nM and the EC50 ([3]; geometric mean) was 0.5 nM. The half-life at 2 μM ([4]; class symbol) was > 10 h and the half-life at 2 μM ([4]; Table 3) was > 10 h.

With `Cc1cncc(-n2c([C@H](C)Nc3nc(N)nc(N)c3C#N)nc3c(F)ccc(Cl)c3c2=O)c1` [Compound 32, (S)-2,4-diamino-6-(1-(5-chloro-8-fluoro-3-(5-methylpyridin-3-yl)-4-oxo-3,4-dihydroquinazolin-2-yl)ethylamino)pyrimidine-5-carbonitrile] the IC50 [1] was 2 nM, the EC50 ([3]; class symbol) was < 1 nM and the EC50 ([3]; geometric mean) was 0.4 nM. For the same compound, the half-life at 2 μM ([4]; class symbol) was > 10 h and the half-life at 2 μM ([4]; Table 3) was > 10 h.

`N#Cc1c(N)nc(N)nc1N[C@H](c1nc2c(F)ccc(Cl)c2c(=O)n1-c1cncc(F)c1)C1CC1` [Compound 33, (S)-2,4-diamino-6-((5-chloro-8-fluoro-3-(5-fluoropyridin-3-yl)-4-oxo-3,4-dihydroquinazolin-2-yl)(cyclopropyl)methylamino)pyrimidine-5-carbonitrile] gave an IC50 [1] of 2 nM, an EC50 ([3]; class symbol) of 1 to 10 nM and an EC50 ([3]; geometric mean) of 5 nM. For the same compound, the half-life at 2 μM ([4]; class symbol) was > 10 h and the half-life at 2 μM ([4]; Table 3) was > 10 h.

`C[C@H](Nc1nc(N)nc(N)c1Cl)c1nc2c(Cl)cc(F)cc2c(=O)n1-c1ccc(N)nc1` [Compound 81, (S)-3-(6-aminopyridin-3-yl)-8-chloro-2-(1-((2,6-diamino-5-chloropyrimidin-4-yl)amino)ethyl)-6-fluoroquinazolin-4(3H)-one] showed an IC50 [1] of 84 nM and an IC50 [2] of 180 nM.

With `C[C@H](Nc1nc(N)nc(N)c1Cl)c1nc2c(Cl)ccc(Cl)c2c(=O)n1-c1ccc(N)nc1` [Compound 83, (S)-3-(6-aminopyridin-3-yl)-5,8-dichloro-2-(1-((2,6-diamino-5-chloropyrimidin-4-yl)amino)ethyl)quinazolin-4(3H)-one] the IC50 [1] was 12 nM and the IC50 [2] was 42 nM.

With `CC[C@H](Nc1nc(N)nc(N)c1Cl)c1nc2cccc(Cl)c2c(=O)n1-c1ccc(N)nc1` [Compound 86, (S)-3-(6-aminopyridin-3-yl)-5-chloro-2-(1-((2,6-diamino-5-chloropyrimidin-4-yl)amino)propyl)quinazolin-4(3H)-one] the IC50 [1] was 9 nM and the IC50 [2] was 35 nM.

In the case of `Nc1ccc(-n2c([C@@H](Nc3nc(N)nc(N)c3Cl)C3CC3)nc3cccc(Cl)c3c2=O)cn1` [Compound 89, (S)-3-(6-aminopyridin-3-yl)-5-chloro-2-(cyclopropyl((2,6-diamino-5-chloropyrimidin-4-yl)amino)methyl)quinazolin-4(3H)-one], the IC50 [1] is reported as 9 nM and the IC50 [2] is reported as 27 nM.
